Target: T1, hGMF-β (human glia maturation factor-β) (Homo sapiens, UniProt P60983)
T1 construct: gene GMFB; amine-coupled to CM5 chip
Assay: SPR (Biacore T200), GMF-β immobilised on CM5 chip, […] fit
Type: binding

T1 sequence (P60983 2-142): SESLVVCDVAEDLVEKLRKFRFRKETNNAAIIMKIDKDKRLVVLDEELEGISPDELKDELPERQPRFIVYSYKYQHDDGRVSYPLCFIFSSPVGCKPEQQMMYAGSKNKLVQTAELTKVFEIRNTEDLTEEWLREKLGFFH

- Kd: 20 µM
SMILES: OCc1cccc2[nH]ncc12 [II, 1-H-indazole-4yl methanol]

— publication PMC7051966, “Substrate Specific Inhibitor Designed against the Immunomodulator GMF-beta Reversed the Experimental Autoimmune Encephalomyelitis” (Scientific Reports, 2020)
